Drawing on PubChem BioAssay (NCI), this text covers TGI for 11 compounds.

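Results reflect a 48-hour exposure of cells in 96-well plates to compound at five concentrations. TGI: total growth inhibition.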 Where only a bound is given, the exact number is not on record here.

Among the test systems are OVCAR-3 ovarian; HS 578T breast; SK-MEL-28 melanoma; HCT-15 colon; ACHN renal; UO-31 renal; T-47D breast; NCI-H226 lung; IGROV1 ovarian; SR leukemia.
What all share (assay): DTP human tumour cell line panel, 48 h

Regarding `CCOC(=O)C1(C(=O)OCC)CCCN1C(=O)[C@H](CNC(=O)OC(C)(C)C)NC(=O)OCc1ccccc1`, the TGI with OVCAR-3 ovarian, with HS 578T breast, in the test on SK-MEL-28 melanoma, in the test with HCT-15 colon, in the test on ACHN renal and with UO-31 renal was greater than 100 µM in each case. In addition, the TGI in the test on T-47D breast, in the test with NCI-H226 lung, in the test with IGROV1 ovarian and in the test on SR leukemia was greater than 100 µM each time.

Consider `COc1cc2c(cc1OC)C13CC[N+]4(C)CC5=CCOC6CC(=O)N2C1C6C5CC34[O-]` (stereo not given), for which the TGI in the test with OVCAR-3 ovarian, in the test with HS 578T breast, in the test on SK-MEL-28 melanoma, in the test on HCT-15 colon, in the test on ACHN renal and in the test with UO-31 renal was greater than 100 µM in each case. Further, the total growth inhibition concentration (TGI) in the test with T-47D breast, in the test on NCI-H226 lung, in the test with IGROV1 ovarian and in the test with SR leukemia was greater than 100 µM each time.

Turning to `Nc1nc(Nc2ccccc2)sc1C(=O)c1c[nH]c2ccccc12`, the TGI (commonly the concentration at which net growth stops) came out at 26.6 µM in the test with OVCAR-3 ovarian; 42.5 µM in the test on HS 578T breast; 26.3 µM with SK-MEL-28 melanoma; 14.7 µM with HCT-15 colon; 62.2 µM in the test on ACHN renal; 13.1 µM in the test with UO-31 renal. In addition, the total growth inhibition concentration (TGI) with T-47D breast amounted to 33.3 µM; with NCI-H226 lung, 29.7 µM; in the test on IGROV1 ovarian it was 31.2 µM; with SR leukemia it was 5.12 µM.

`COc1cc(CNc2nc3cc(C(F)(F)F)ccc3nc2-c2ccccc2)cc(OC)c1OC`: the TGI in the test on OVCAR-3 ovarian is greater than 100 µM; with HS 578T breast, greater than 100 µM; in the test on SK-MEL-28 melanoma it was greater than 100 µM; in the test on HCT-15 colon it was 56 µM; in the test on ACHN renal, greater than 100 µM; with UO-31 renal, greater than 100 µM. The TGI in the test on T-47D breast is 6.62 µM; in the test on NCI-H226 lung, greater than 100 µM; with IGROV1 ovarian, greater than 100 µM; in the test with SR leukemia, greater than 100 µM.

`S=C1CC(c2ccccc2)Sc2ccc(Cl)cc2N1` (stereo not given): the TGI in the test on OVCAR-3 ovarian was greater than 100 µM; in the test on HS 578T breast, 48.3 µM; in the test with SK-MEL-28 melanoma, greater than 100 µM; in the test with HCT-15 colon, greater than 100 µM; in the test with ACHN renal, greater than 100 µM; with UO-31 renal, greater than 100 µM. Besides, the TGI with T-47D breast, in the test on NCI-H226 lung, with IGROV1 ovarian and with SR leukemia was greater than 100 µM in each case.

As for `COc1cc(CC(C)N)ccc1O` (stereo not given), the concentration for total growth inhibition (TGI) in the test with OVCAR-3 ovarian, with HS 578T breast, in the test with SK-MEL-28 melanoma, with HCT-15 colon, with ACHN renal and in the test on UO-31 renal was greater than 100 µM throughout. The TGI with T-47D breast, in the test on NCI-H226 lung, in the test on IGROV1 ovarian and in the test with SR leukemia was greater than 100 µM each time.

`O=C(O)c1c2c(cc3c1CC1(Cc4ccccc4C1=O)C3)CCC2` (stereo not given): the TGI with OVCAR-3 ovarian, in the test with HS 578T breast, in the test on SK-MEL-28 melanoma, in the test with HCT-15 colon, in the test with ACHN renal and with UO-31 renal was greater than 100 µM each time. In addition, the TGI with T-47D breast was greater than 90.7 µM; with NCI-H226 lung, greater than 85.8 µM; in the test with IGROV1 ovarian it was greater than 100 µM; in the test on SR leukemia, 9.56 µM.

Consider `CCOC(=O)C1CN(C2CC2)CCC1=O` (stereo not given), for which the TGI in the test with OVCAR-3 ovarian, with HS 578T breast, in the test with SK-MEL-28 melanoma, in the test on HCT-15 colon, in the test on ACHN renal and in the test with UO-31 renal was greater than 100 µM in each case. The TGI in the test with T-47D breast, with NCI-H226 lung, in the test on IGROV1 ovarian and with SR leukemia was greater than 100 µM in each case.

Consider `COc1ccc(N=NC(=Nc2ccc(F)cc2)c2ccc(N(CCC#N)CCC#N)cc2)cc1`, for which the TGI with OVCAR-3 ovarian is greater than 100 µM; in the test with HS 578T breast it was 86.4 µM; in the test with SK-MEL-28 melanoma, greater than 100 µM; in the test with HCT-15 colon, greater than 100 µM; with ACHN renal, greater than 100 µM; in the test with UO-31 renal it was greater than 100 µM. Moreover, the TGI was greater than 100 µM in the test with T-47D breast, greater than 100 µM with NCI-H226 lung, 77.7 µM in the test with IGROV1 ovarian and greater than 100 µM in the test with SR leukemia.

As to `CCOC(=O)C(C)c1nc2c(Cl)c3ncccc3cc2[nH]c1=O` (stereo not given), the TGI in the test with OVCAR-3 ovarian is greater than 100 µM; in the test on HS 578T breast, 90.4 µM; in the test on SK-MEL-28 melanoma, greater than 100 µM; with HCT-15 colon, greater than 100 µM; with ACHN renal it was greater than 100 µM; in the test on UO-31 renal, greater than 100 µM. Besides, the TGI was greater than 100 µM in the test with T-47D breast, greater than 100 µM in the test with NCI-H226 lung, greater than 100 µM in the test on IGROV1 ovarian and 99.2 µM in the test with SR leukemia.

With `COC(=O)C1(Cc2ccc3c(c2)CCC3)Cc2cc3c(cc2C1)CCC3`, the TGI in the test on OVCAR-3 ovarian, in the test on HS 578T breast, in the test with SK-MEL-28 melanoma, in the test with HCT-15 colon, in the test on ACHN renal and with UO-31 renal was greater than 100 µM each time. Further, the TGI with T-47D breast was 60.7 µM; in the test on NCI-H226 lung, greater than 100 µM; in the test with IGROV1 ovarian it was greater than 100 µM; with SR leukemia, greater than 100 µM.
